Tests used:
MM46 Mammary carcinoma = MM46 Mammary carcinoma in mice (Test 6); type: in vivo, mice (C3 H/HeN); conditions: 3.2 mg/kg i.p., days 1, 5 and 9; median survival time
Text: MM46 Mammary carcinoma (1×10^6 cells), maintained i.p. by serial passage in female C3 H/HeN mice, was implanted i.p. to female C3 H/HeN mice on day 0, and the test compounds or vehicle were given i.p. to the mice once a day on days 1, 5 and 9.
(§1) Ten mice were used for each test group and twenty mice were used for each vehicle-treated control group.
(§2) Drug efficacy against the ascitic tumors is expressed as percentage of the median survival time of the test group to that of the control group. [formula]

EL4 Lymphoma = EL4 Lymphoma in mice (Test 6); type: in vivo, mice (BDF1); conditions: 10.0 mg/kg i.p., days 1, 5 and 9; median survival time
Text: EL4 Lymphoma (1×10^6 cells), maintained i.p. by serial passage in female C57BL/6 mice, was implanted i.p. to female BDF1 mice on day 0, and the test compounds or vehicle were given i.p. to the mice once a day on days 1, 5 and 9.
as §1, §2

[1] = system: Human LC-6-JCK lung carcinoma; assay: Human LC-6-JCK lung carcinoma in nude mice (Test 10); type: in vivo, human (in BALB/c nu/nu mice); conditions: 10.0 mg/kg i.v., days 12, 16 and 20; evaluation day 28
Procedure: Human LC-6-JCK lung or SC-6-JCK stomach (each fragment, 2×2×2 mm), maintained s.c. by serial passage in male BALB/c nu/nu mice, was implanted s.c. to male BALB/c nu/nu mice on day 0, and the test compounds were given i.v. to the mice once a day on days 12, 16 and 20.
(§3) Tumor weight was calculated as follows: (Tumor length and width were measured by caliper.)
(§4) Tumor weight (mg)=1/2×a×b^2, where a represents length and b represents width (mm).
Tumor weights (initial) and (last) were calculated on the first injection day (just before dosing) and on day 28 (the last evaluation day), respectively.
Five mice were used for each test group and four or five mice were used for each vehicle-treated control.
(§5) Drug efficacy was expressed as percentage of mean tumor weight of the test group to that of the control group. [formula]

[2] = system: Lymphocytic leukemia P388; assay: Antitumor activity against lymphocytic leukemia P388 in mice (Test 1); type: in vivo, mice (BDF1); conditions: for T/C: mean survival time treated/control
Procedure: The antitumor activity of FR-900482 substance was determined in experimental tumor system in mice.
Lymphocytic leukemia P388 was implanted intraperitoneally into BDF1 mice at an inoculum size of 1×10^6 cells per mouse. Twenty-four hours after the implantation of tumor cells, graded doses of the FR-900482 substance were administered to mice intraperitoneally. Treatments were once a day on day 1, 2, 3 and 4 after the tumor inoculation. Control animals received intraperitoneal doses of physiological saline solution. The injection volume was 0.2 ml in all experiments. Six mice were used for each experimental group.
Antitumor activity was evaluated by the mean survival time of a group of mice and also expressed by the T/C % value (mean survival time of treated group/mean survival time of control group, ×100).

[3] = Acute toxicity in ddY mice (Test 3); conditions: mouse, in vivo
L1210 Leukemia = L1210 Leukemia ascitic tumor in mice (Test 5); type: in vivo, mice (BDF1 or CDF1); conditions: 10.0 mg/kg i.p., days 1-9, BDF1 mice
Text: L1210 Leukemia (1×10^5 cells), maintained i.p. by serial passage in female DBA/2 mice, was implanted i.p. to female BDF1 or CDF1 mice on day 0, and the test compounds or vehicle were given i.p. to the mice once a day on days 1-9.
Ten mice were used for each test group, and twenty mice were used for each vehicle-treated control group.
Drug efficacy against the ascitic tumors is expressed as percentage of the median (mean) survival time of the test group to that of the control group. [formula] .circle.2 Results

Human LX-1 lung = Human LX-1 lung tumor in nude mice (Test 9); type: in vivo, human (in BALB/c nu/nu mice); conditions: 18.0 mg/kg i.v., days 12, 16 & 20; evaluation day 28
Procedure: (§6) Human LX-1 lung or MX-1 mammary (each fragment, 2×2×2 mm), maintained s.c. by serial passage in male BALB/c nu/nu mice, was implanted s.c. to male BALB/c nu/nu mice on day 0, and the test compounds or vehicle were given i.v. to the mice once a day on specified days in Table 9.
as §3, §4
(§7) Tumor weights (initial) and (last) were calculated on the first injection day (just before dosing) and on day 21, 27 or 28 (the last evaluation day), respectively.
(§8) Five mice were used for each test group and 5 or 10 mice were used for each vehicle-treated control group.
as §5

Human MX-1 mammary = Human MX-1 mammary tumor in nude mice (Test 9); type: in vivo, human (in BALB/c nu/nu mice); conditions: 10.0 mg/kg i.v., days 11, 15 & 19; evaluation day 27
Procedure: as §6, §3, §4, §7, §8, §5

AMC60 Fibrosarcoma = assay: in vivo rat ascitic tumor model, AMC60 Fibrosarcoma (Test 8); design: species or system rats (ACI/N); conditions: 3.2 mg/kg i.p., days 1, 5 and 9; median survival time
Text: AMC60 Fibrosarcoma (1×10^6 cells), maintained i.p. by serial passage in female ACI/N rats, was implanted i.p. to female ACI/N rats on day 0, and the test compounds or vehicle were given i.p. to the rats once a day on days 1, 5 and 9. Seven rats were used for each test group or vehicle-treated control group.
as §2

[4] = Mixture ratios of the two components under various pH values; type: physicochemical; conditions: pH 1.0, 0.1 N hydrochloric acid
Procedure: The FR-900482 substance was dissolved in various buffer solutions so as to make its concentration to 10 mg/ml. After allowing to stand for 2 hours, 4 μl of each of these solutions was subjected to silica gel thin layer chromatography using a mixture of chloroform and methanol (4:1, v/v) as a developing solvent. After developing, the mixture ratios of the two components were calculated by a chromatoscanner at 254 nm, the results of which are shown in the following.

Ehrlich carcinoma = Ehrlich carcinoma in mice (Test 6); type: in vivo, mice (ICR); conditions: 3.2 mg/kg i.p., days 1, 5 and 9; median survival time
Text: Ehrlich carcinoma (1×10^6 cells), maintained i.p. by serial passage in female ICR mice, implanted i.p. to female ICR mice on day 0, and the test compounds or vehicle were given i.p. to the mice once a day on days 1, 5 and 9.
as §1, §2

NC(=O)OCC1c2c(O)cc(C=O)cc2N2CC3NC3C1(O)O2 (stereo not shown) [FR-900482 substance, 4-Formyl-6,9-dihydroxy-14-oxa-1,11-diazatetracyclo[7.4.1.0^2,7.0^10,12]tetradeca-2,4,6-trien-8-ylmethyl carbamate]
T/C (MM46 Mammary carcinoma): > 300%
T/C (EL4 Lymphoma): 169%
1-T"/C" [1]: 100%
Mean Survival time ([2]; 1.0 mg/kg i.p., days 1-4): 13.0 days
T/C ([2]; 1.0 mg/kg i.p., days 1-4): 118%
Mean Survival time ([2]; 3.2 mg/kg i.p., days 1-4): 14.0 days
T/C ([2]; 3.2 mg/kg i.p., days 1-4): 127%
Mean Survival time ([2]; 5.6 mg/kg i.p., days 1-4): 16.0 days
T/C ([2]; 5.6 mg/kg i.p., days 1-4): 145%
Mean Survival time ([2]; 10 mg/kg i.p., days 1-4): 24.5 days
T/C ([2]; 10 mg/kg i.p., days 1-4): 223%
Mean Survival time ([2]; 18 mg/kg i.p., days 1-4): 29.0 days
T/C ([2]; 18 mg/kg i.p., days 1-4): 264%
increase in life span in mice ([2]; doses between 3.2-18 mg/kg i.p.): significant increase in life span
activity against the leukemia P388 ([2]; i.p., days 1-4): quite active
LD50 ([3]; ip, intraperitoneal injection): 32 mg/kg
LD50 ([3]; intravenous injection): 32 mg/kg
T/C (L1210 Leukemia): > 190%
1-T"/C" (Human LX-1 lung): 97%
1-T"/C" (Human MX-1 mammary): 100%
T/C (AMC60 Fibrosarcoma): > 333%
Ratios of the two components [4]: single component
Solubility (Solubility; acetone): Insoluble
Solubility (Solubility; chloroform): Insoluble
Solubility (Solubility; ethyl acetate): Insoluble
Solubility (Solubility; methanol): Soluble
Solubility (Solubility; water): Soluble
T/C (Ehrlich carcinoma): > 270%

— patent publication US4861774A, “Method of treating tumors using tetracyclo compounds” (priority 1984, dated 1989)
